Measurements as given in EP3922250A1, “COMPOSITION FOR CORRECTING THE BEHAVIOUR OF CATS AND DOGS” (priority 2019, dated 2021).
Several values for one entry are separate records, joined by “and”; a condition that tells them apart may be missing. Identical values can stand only once. Counter-ions that a name gives are not always drawn.

Tests used:
[1] = system: White Mice; assay: Acute oral toxicity testing, intragastric administration (Miller and Tainter); details: for % of deaths / Number of Animals dead: 10 per group, 14 days follow-up
Description: (§1) This parameter was evaluated on mice and rats in accordance with a conventional procedure for acute toxicity testing of medicinal products (Example 2).
(§2) In each case, 7 experimental groups and 1 control group of white rats and 7 experimental and 1 control groups of white mice, 10 individuals in each, were formed. The product was administered via an intragastric tube in accordance with the design described in Table I. 1% starch gel was used as the suspending agent.
(§3) Follow-up period was 14 days. The observation included general condition, behavior, feed and water intake, manifestation of intoxication symptoms, possible deaths.

[2] = system: male cats
Description: The trials enrolled apparently healthy entire animals (8 male cats and 8 female cats) aged 2 to 6 years, weighing 3 to 4 kg, kept in foster care at BIM Animal Shelter. The females were introduced into the study as they went into estrus. Table XII. Registration details of the cats enrolled in the experiment
Male cats with pronounced signs of heat were placed in individual cages in a dedicated room where 2 female cats in heat were present (in separate cages in the same room). TR Succinate in the tablet form (for the experimental animals) and placebo tablets (for the control animals) were given in accordance with the same design as in the experiment with female cats. Follow-up observation over the animals was carried out in a similar manner.

[3] = system: White Rats; assay: Acute oral toxicity testing, intragastric administration (Miller and Tainter); details: for % of deaths / Number of Animals dead: 10 per group, 14 days follow-up
Description: as §1, §2, §3

[4] = system: female cats; assay: Suppression of behavioral signs of heat in female cats
[5] = system: domestic cats; details: 48 to 50 mg per capita (averaging 10 to 14 mg/kg), one hour after administration
Description: Based on the data obtained by observing animals under stress, the most frequent symptoms of anxiety and fear common to various stressful situations were selected to assess the severity of their abnormal behavior. They included vocalizing, hypersalivation, overgrooming, abnormal (higher or lower) motion activity, soiling (urination and/or defecation), and 'destructive behavior' consisting in signs of aggression, attempts at damaging ambient objects, etc. For each symptom (based on its severity), points from 0 to 2 were given, which subsequently were totalized individually for each animal or, where appropriate, for a whole group of animals to determine an average value.
For each of the 6 symptoms (based on its severity), points from 0 to 2 were given, which subsequently were totalized individually for each animal. Therein, a total score of more than 6 points (out of possible 12) was considered to be indicative of an apparent severity of abnormal (changed) behavior.
To carry out the experiment, 6 domestic cats of different sex and age, weighing 3.5 to 5 kg, were selected, who, according to their owners, felt bad during transportation, showing various forms of abnormal behavior. Herein, the actual presence of stress symptoms and their severity for each cat were assessed from video data provided by their owners. […]

[6] = in vivo; cited from earlier work
[7] = substance, intragastric, in 1% starch gel
[8] = substance, intragastric, in 1% starch gel, 20160 min
[9] = one 100 mg tablet (24 mg active ingredient, 6-8 mg/kg) oral, individual male cats
[10] = female and male cats in heat, single dose 6-8 mg/kg
[11] = one 100 mg tablet (24 mg active ingredient, 6-8 mg/kg) oral, individual female cats

## Trazodone Succinate
[1]; 400 mg/kg intragastric
  % of deaths: 0%
  Number of Animals dead: 0
[1]; 800 mg/kg intragastric
  % of deaths: 10.0%
  Number of Animals dead: 1
[1]; 1600 mg/kg intragastric
  % of deaths: 70.0%
  Number of Animals dead: 7
[1]; 2000 mg/kg intragastric
  % of deaths: 100.0%
  Number of Animals dead: 10
[1]; 2500 mg/kg intragastric
  % of deaths: 100.0%
  Number of Animals dead: 10
[1]; 3000 mg/kg intragastric
  % of deaths: 100.0%
  Number of Animals dead: 10
[1]; classified from the LD50 values in mice and rats
  Hazard class according to GOST 12.1.007-76: Hazard Class III
[1]; [7]
  LD16: 840 mg/kg
  LD84: 1690 mg/kg
  LD100: 1935 mg/kg
[1]; [8]
  LD50: 1200 (1091.6-1308.4) mg/kg
  MTD: 400 mg/kg
[2]; in vivo
  abnormal behaviors: no abnormal behaviors were observed
[2]; [9]
  Total intensity of heat signs after the product administration (points) after 30 minutes: 5 points (3×) and 6 points and 4 points (2×)
  Total intensity of heat signs after the product administration (points) after 3 hours: 1 points (4×) and 2 points (2×)
  Total intensity of heat signs after the product administration (points) after 6 hours: 2 points (4×) and 1 points (2×)
[3]; 400 mg/kg intragastric
  % of deaths: 0%
  Number of Animals dead: 0
[3]; 800 mg/kg intragastric
  % of deaths: 20.0%
  Number of Animals dead: 2
[3]; 1600 mg/kg intragastric
  % of deaths: 40.0%
  Number of Animals dead: 4
[3]; 2700 mg/kg intragastric
  % of deaths: 70.0%
  Number of Animals dead: 7
[3]; 3000 mg/kg intragastric
  % of deaths: 100.0%
  Number of Animals dead: 10
[3]; 3500 mg/kg intragastric
  % of deaths: 100.0%
  Number of Animals dead: 10
[3]; [7]
  LD16: 760 mg/kg
  LD84: 2730 mg/kg
  LD100: 2945 mg/kg
[3]; [8]
  LD50: 2300 (2079.5-2520.5) mg/kg
  MTD: 400 mg/kg
[4]; experimental group female cats, during the experiment
  side effects, such as pronounced hypnotic action, atony, slowness or dystaxia: No side effects
[4]; [10]
  start of the sedative action after the product administration: 30 min
  time the sedative action remained: at least 6 hours
  time to maximum sedative action (substantially complete disappearance of estrous behavior signs): 1 h
[4]; [11]
  Total intensity of heat signs after the product administration (points) after 30 minutes: 5 points (3×) and 6 points and 4 points (2×)
  Total intensity of heat signs after the product administration (points) after 1 hour: 0 points (4×) and 1 points (2×)
  Total intensity of heat signs after the product administration (points) after 3 hours: 1 points (5×) and 2 points
  Total intensity of heat signs after the product administration (points) after 6 hours: 2 points (4×) and 1 points (2×)
  Total intensity of heat signs after the product administration (points) after 8 hours: 4 points (2×) and 1 points (3×) and 5 points
[5]
  sedative action onto the animals: pronounced sedative actions of comparable efficacy

## O=c1n(CCCN2CCN(c3cccc(Cl)c3)CC2)nc2ccccn12 [Trazodone Hydrochloride, reference compound]
[5]
  sedative action onto the animals: pronounced sedative actions of comparable efficacy

## O=c1n(CCCN2CCN(c3cccc(Cl)c3)CC2)nc2ccccn12 [TR, Trazodone]
[6]
  amount of plasma protein binding: 89-95%
  excreted from the body via the kidneys: 75%
  excreted unchanged with bile: about 20%
  time to reach complete excretion of the substance: 98 h
